Biological target: Heat shock protein HSP90 (Homo sapiens, UniProt P07900+P08238)
Experiment: Inhibition of HSP90 (unknown origin)

Kd: 800 µM
SMILES: COc1cccc(C(=O)NC2CCC3CCC(C2)N3c2ccc(C(=O)NCc3ccccc3)cc2)c1C (stereo unspecified)

— ChEMBL document CHEMBL3862038, “When Does Chemical Elaboration Induce a Ligand To Change Its Binding Mode?” (J Med Chem, 2017)
